Data as given in patent US20220268782A1, “METHODS FOR PREDICTING AND TREATING CARDIAC DYSFUNCTION” (INSERM (INSTITUT NATIONAL DE LA SANTÉ EAT DE LA RECHERCHE …, priority 2019, published 2022).

Legend:
11 month-old WT mice = assay: In vivo intraperitoneal BH4 treatment of 11-month-old WT mice: cardiac phenotyping, plasma and hepatic PA
Procedure: PA in a dose of 200 mg/kg twice a day or vehicle (1×PBS) was subcutaneously administered to 11 month-old WT mice (Janvier Labs, France) in vivo for a month. BH4 in a dose of 10 mg/kg/die 2×/die or vehicle (1×PBS with 10 mM sodium ascorbate and citric acid to pH 4.5) was intraperitoneally administered to 11 month-old WT mice in vivo over six weeks. General state of the mice (body weight & wellbeing) was closely monitored.
(§1) Data acquisition for a single cohort was performed by a single operator (JT or ER). Images were acquired from a parasternal position at the level of the papillary muscles using a 13-MHz linear-array transducer with a digital ultrasound system (Vivid 7, GE Medical System, Horton, Norway). Left ventricular dimensions and ejection fraction, anterior and posterior wall thicknesses were serially obtained from M-mode acquisition. Relative LV wall thickness (RWT) was defined as the sum of septal and posterior wall thickness over LV end-diastolic diameter, and LV mass was determined using the uncorrected cube assumption formula (LV mass=(AWTd+LVEDD+PWTd)^3−(LVEDD)^3). Peak systolic values of radial strain rate of the anterior and posterior wall were obtained using Tissue Doppler Imaging (TDI) as previously described.^2 TDI loops were acquired from parasternal view with a careful alignment with the radial component of the deformation' at a mean frame rate of 514 fps and a depth of 1 cm. The Nyquist velocity limit was set at 12 cm/s. Radial strain rate analysis was performed offline using the EchoPac Software (GE Medical Systems) blindly by a single operator (GD). Peak systolic of radial strain rate was computed from a region of interest positioned in the mid anterior wall and was measured over an axial distance of 0.6 mm. The temporal smoothing filters were turned off for all measurements. Because of the inevitable respiratory variability, we averaged peak systolic of radial strain rate on 8 consecutive cardiac cycles.
(§2) In vivo haemodynamic measurements were performed just before mice of indicated ages were sacrificed.' Haemodynamic evaluation was performed in mice placed on a homeothermic operating table in supine position under 1.5% isoflurane anesthesia with spontaneous breathing. A 1.4-Fr microcatheter (Millar Instruments, Houston, USA) was calibrated manually before each experiment, inserted via the right carotid artery into the aorta and subsequently advanced to the left ventricle. Data were collected after at least 10 min of baseline, using the lowest isoflurane concentration tolerated to ensure minimal cardiodepression during measurement of peak rates of isovolumetric pressure development (dP/dtmax) and pressure decay (dP/dtmin). The microcatheter was then withdrawn to the aorta for measurement of systolic and diastolic pressure. Data were analyzed using the IOX software (EMKA, France).
(§3) All mice were weighed, euthanized by cervical dislocation, followed by rapid excision of the organs of interest. The heart was cannulated through the aorta for perfusion with ice-cold 1×PBS, then blotted and weighed. The heart was cut in half perpendicular to its axis: the apical two-third was snap-frozen in liquid nitrogen, whilst the basic one-third was recannulated through the aorta, perfused with 10% formalin for histology. Hearts were kept in formalin at 4° C. for at least 24-48 hours before embedding. Snap-frozen tissues were kept at −80° C., until they were powdered using a mortar and pestle cooled with liquid nitrogen and collected as aliquots. Livers and kidneys were processed in a similar manner.
Formalin-fixed organs were embedded in paraffin. Cross-sections were cut into 7 μm thickness using a rotary microtome (Leica). To assess cardiac fibrosis, Sirius red staining was performed, followed by dehydration and mounting with Eukitt quick-hardening mounting medium (Sigma). […]

WT mice = assay: In vivo subcutaneous PA treatment of WT mice: cardiac phenotyping
Procedure: […] […] General state of the mice (body weight & wellbeing) was closely monitored.
as §1, §2, §3
Formalin-fixed organs were embedded in paraffin. Cross-sections were cut into 7 μm thickness using a rotary microtome (Leica). To assess cardiac fibrosis, Sirius red staining was performed, followed by dehydration and mounting with Eukitt quick-hardening mounting medium (Sigma). To visualise cardiomyocyte hypertrophy, sections were incubated in 2 μg/mL Texas red-conjugated wheat germ agglutinin (WGA; Invitrogen) in 1×PBS at room temperature for 45 minutes. Slides were then mounted with fluorescent mounting media (Abcam). Images were acquired using a Zeiss fluorescent microscope. Whole-mount preparations were made of hearts and livers of 2- and 15-month-old p21-mCherry reporter mice. […]

[1] = older group (11 month-old at start), PA 200 mg/kg twice a day, one month

SMILES: CC(O)C(O)C1CNc2nc(N)[nH]c(=O)c2N1 (centres unmarked) [BH4, 2-amino-6-(1,2-dihydroxypropyl)-5,6,7,8-tetrahydro-3H-pteridin-4-one]
- plasma PA (11 month-old WT mice; 11-month-old WT mice, BH4 10 mg/kg i.p. twice a day over 6 weeks, FIG. 4a): reduce plasma PA to young levels
- systemic arterial pressures (11 month-old WT mice; 11-month-old WT mice, BH4 10 mg/kg i.p. twice a day over 6 weeks, FIG. 4f): without lowering
- interstitial fibrosis (Sirius red, vimentin) (11 month-old WT mice; 11-month-old WT mice, BH4 10 mg/kg i.p. twice a day over 6 weeks, FIG. 4g-h): normalised
- senescent myocardial expression of p21, Pah, Gch1 & 2-SC (11 month-old WT mice; 11-month-old WT mice, BH4 10 mg/kg i.p. twice a day over 6 weeks, FIG. 4j): suppressing
- HW/TL (heart weight to tibia length) (11 month-old WT mice; 11-month-old WT mice, BH4 10 mg/kg i.p. twice a day over 6 weeks, to young values, FIG. 4b): ameliorated
- contractility (systolic strain rate, dP/dtmax) (11 month-old WT mice; 11-month-old WT mice, BH4 10 mg/kg i.p. twice a day over 6 weeks, to young values, FIG. 4c-d): ameliorated
- relaxation (dP/dtmin) (11 month-old WT mice; 11-month-old WT mice, BH4 10 mg/kg i.p. twice a day over 6 weeks, to young values, FIG. 4e): ameliorated
- Pah in liver (immunofluorescence) (11 month-old WT mice; 12.5-month-old WT mice, BH4 vs. vehicle, FIG. 4s): re-expressed
- hepatic PA content (11 month-old WT mice; 12.5-month-old WT mice, BH4 vs. vehicle, FIG. 4t): reduced
- course of drug treatment (body weight & wellbeing monitored) (11 month-old WT mice; BH4 10 mg/kg twice a day intraperitoneally over six weeks): completed as scheduled without incidents
- hepatic Pah activity (11 month-old WT mice; BH4-treated WT mice, data not shown): improved

SMILES: N[C@@H](Cc1ccccc1)C(=O)O [PA, (S)-2-Amino-3-phenylpropanoic acid]
- course of drug treatment (body weight & wellbeing monitored) (WT mice; PA 200 mg/kg twice a day subcutaneously for a month): completed as scheduled without incidents
- LV ejection fraction (WT mice; PA 200 mg/kg twice a day, one month, FIG. 3h): unaltered
- Plasma PA levels (WT mice; WT mice 5 vs. 11 month-old at start, PA 200 mg/kg twice a day over one month): increased in both age-groups, but were considerably higher in older animals
- tolerability / weight loss (WT mice; WT mice, PA 200 mg/kg twice a day over one month, data not shown): tolerated PA treatment well without significant weight loss
- hepatic PA levels (WT mice; livers of PA-treated 6-month-old WT mice vs. 12-month-old WT mice, FIG. 4m): comparable
- cardiac hypertrophy (HW/TL) (WT mice; [1]): no change
- cardiomyocyte size (cross-sectional area) (WT mice; [1]): no change
- myocardial interstitial fibrosis (Sirius red) (WT mice; [1]): no change
- cardiac hypertrophy (HW/TL) (WT mice; young animals (5 month-old at start), PA 200 mg/kg twice a day, one month, FIG. 3c): increase
- cardiomyocyte size (cross-sectional area) (WT mice; young animals, PA 200 mg/kg twice a day, one month, FIG. 3e): increase
- myocardial interstitial fibrosis (Sirius red) (WT mice; young animals, PA 200 mg/kg twice a day, one month, FIG. 3f): increase
- systolic strain rate (WT mice; young group, PA 200 mg/kg twice a day, one month, FIG. 3i): reduced
- dP/dtmax (WT mice; young group, PA 200 mg/kg twice a day, one month, FIG. 3j): reduced
- dP/dtmin (WT mice; young group, PA 200 mg/kg twice a day, one month, FIG. 3k): reduced
- myocardial senescence: p21, Pah, Gch1, 2-SC and 4-HNE (WT mice; young hearts, PA 200 mg/kg twice a day, one month, FIG. 3l): upregulation
